Measured values reported in ChEMBL document CHEMBL1147540, “Design, synthesis, and SAR of 2-dialkylamino-4-arylpyrimidines as potent and selective corticotropin-releasing factor(1) (CRF(1)) receptor antagonists” (Bioorg Med Chem Lett, 2004).

Assays:
[1] = biological target: T1, Corticotropin-releasing factor receptor 1 (Homo sapiens, UniProt P34998); assay: biochemical; format: cell-based, CHO
T1 sequence (P34998 whole entry): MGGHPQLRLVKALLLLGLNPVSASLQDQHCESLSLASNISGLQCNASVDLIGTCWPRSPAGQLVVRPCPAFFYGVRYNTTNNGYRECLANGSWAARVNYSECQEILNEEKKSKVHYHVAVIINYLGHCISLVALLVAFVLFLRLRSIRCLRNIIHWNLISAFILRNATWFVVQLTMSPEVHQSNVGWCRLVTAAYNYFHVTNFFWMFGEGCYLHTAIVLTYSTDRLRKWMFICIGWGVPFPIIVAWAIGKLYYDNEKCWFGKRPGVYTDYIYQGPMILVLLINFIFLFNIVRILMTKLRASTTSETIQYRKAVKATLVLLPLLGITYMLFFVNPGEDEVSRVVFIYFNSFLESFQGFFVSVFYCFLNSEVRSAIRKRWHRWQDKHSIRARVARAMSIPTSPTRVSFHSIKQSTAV

[2] = biological target: T1, Corticotropin-releasing factor receptor 1; assay: Binding affinity towards human Corticotropin releasing factor receptor 1 by the displacement of [125I]CRF from CHO cells; IA means Inactive; format: cell-based
[3] = biological target: T2, Corticotropin-releasing factor receptor 2 (Homo sapiens, UniProt Q13324); assay: Binding affinity towards human Corticotropin releasing factor receptor 2 by the displacement of [125I]CRF from CHO cells; IA means Inactive; format: cell-based
T2 sequence (Q13324 whole entry): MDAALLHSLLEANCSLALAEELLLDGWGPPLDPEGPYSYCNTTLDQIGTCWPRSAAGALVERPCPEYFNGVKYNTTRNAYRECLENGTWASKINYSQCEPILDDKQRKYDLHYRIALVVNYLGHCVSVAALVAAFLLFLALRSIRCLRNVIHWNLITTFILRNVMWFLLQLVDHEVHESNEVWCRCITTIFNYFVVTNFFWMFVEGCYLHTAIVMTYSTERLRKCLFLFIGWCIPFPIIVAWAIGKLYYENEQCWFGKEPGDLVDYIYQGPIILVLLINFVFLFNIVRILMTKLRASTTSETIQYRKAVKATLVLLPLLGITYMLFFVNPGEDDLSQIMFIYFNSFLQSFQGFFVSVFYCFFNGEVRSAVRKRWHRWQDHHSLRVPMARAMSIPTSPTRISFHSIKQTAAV

[4] = biological target: T1, Corticotropin-releasing factor receptor 1; assay: Effective dose against CRF stimulated cAMP production in CHO cells expressing human Corticotropin releasing factor receptor 1; format: functional, cell-based
[5] = biological target: T1, Corticotropin-releasing factor receptor 1; assay: Effective dose against human Corticotropin releasing factor receptor 1 stimulated ACTH release from primary rat anterior pituitary cell cultures; format: functional, cell-based, Pituitary gland cell

CCCN(c1nccc(-c2ccc(OC)cc2OC)n1)C(C1CC1)C1CC1
Ki [1]: 460 nM

CCCN(c1nccc(-c2c(OC)cc(OC)cc2OC)n1)c1cccc2ccccc12
Ki [2]: Not Active

CCCN(c1nccc(-c2c(Cl)cc(OC)cc2OC)n1)C(C1CC1)C1CC1
Ki [1]: 11 nM
Ki [3]: Not Active
EC50 [4]: 1600 nM
EC50 [5]: 1100 nM

C=CCN(c1nccc(-c2c(OC)cc(OC)cc2OC)n1)C(C1CC1)C1CC1
Ki [1]: 100 nM

CCCN(c1ncc(C)c(-c2ccc(Br)cc2)n1)C(C1CC1)C1CC1
Ki [1]: 49 nM

CCCN(c1ncc(C(=O)OC)c(-c2ccc(OC)cc2OC)n1)C(C1CC1)C1CC1
Ki [2]: Not Active

CCCN(c1ncc(C)c(-c2c(OC)cc(OC)cc2OC)n1)C(C1CC1)C1CC1
Ki [1]: 15 nM

CCCN(c1nccc(-c2c(F)cc(OC)cc2OC)n1)C(C1CC1)C1CC1
Ki [1]: 63 nM

COc1cc(OC)c(-c2ccnc(N)n2)c(OC)c1
Ki [2]: Not Active

CCCN(c1ncc(CC)c(-c2ccc(OC)cc2OC)n1)C(C1CC1)C1CC1
Ki [1]: 860 nM

CCCN(c1ncc(C)c(-c2ccc(OC)cc2OC)n1)C(C1CC1)C1CC1
Ki [1]: 19 nM

CCCN(c1nccc(-c2c(OC)cc(OC)cc2OC)n1)C(C1CC1)C1CC1
Ki [1]: 15 nM
Ki [3]: Not Active
EC50 [4]: 990 nM
EC50 [5]: 970 nM

CCCN(c1nccc(-c2c(OC)cc(OC)cc2OC)n1)C1(c2cccs2)CC1
Ki [1]: 250 nM

CCCN(c1nccc(-c2c(OC)cc(OC)cc2OC)n1)C1(c2ccoc2)CC1
Ki [1]: 700 nM

CCCN(c1nc(C)c(C)c(-c2ccc(Br)cc2)n1)C(C1CC1)C1CC1
Ki [2]: Not Active

CCCN(c1ncc(C)c(-c2ccc(Br)cc2C)n1)C(C1CC1)C1CC1
Ki [1]: 63 nM

CCCN(c1nccc(-c2c(OC)cc(OC)cc2OC)n1)[C@@H](c1ccccc1)C1CC1
Ki [1]: 240 nM

COc1cc(OC)c(-c2ccnc(NC(C3CC3)C3CC3)n2)c(OC)c1
Ki [2]: Not Active
